For test [1], the system named is control sera (pooled serum of ten healthy LUMC hospital workers; commercial negative donor pooled serum from the Dutch bloodbank). The class given is binding, human. Also on record: Binding of Control serum LUMC to linear peptides / Binding of Control serum Blood-bank to linear peptides / Binding of Control serum LUMC to looped peptides / Binding of Control Serum Blood-Bank to Looped peptides / Binding of Control serum LUMC to linear peptides of the protein M of SARS-CoV Urbani / Binding of Control serum Blood-bank to linear peptides of the protein M of SARS-CoV Urbani / Binding of Control serum LUMC to looped peptides of the protein M of SARS-CoV Urbani / Binding of Control Serum Blood-Bank to Looped peptides of the protein M of SARS-CoV Urbani: unit not given here.

For test [2], the system named is rabbit serum obtained by immunizing a rabbit with the SARS-CoV strain Frankfurt 1. Format: binding. Also on record: Binding of a rabbit serum to linear peptides / Binding of a rabbit serum to looped peptides / Rabbit serum linear peptides / Rabbit serum looped peptides / Binding of a rabbit serum to linear peptides of protein N of SARS-CoV Urbani (Rabbit serum linear peptides) / Binding of a rabbit serum to looped/cyclic peptides of protein N of SARS-CoV Urbani (Rabbit serum looped peptides): unit not given here.

The test system of test [3] is antibodies in sera from SARS patients (sera 1a, 1b, 2, 6, 37, 62, London, SARS-yellow, SARS-green). Format: binding, human. On the set-up: Binding of serum 6 to linear peptides of protein X1 of SARS-CoV Urbani / Binding of serum 37 to linear peptides of protein X1 of SARS-CoV Urbani / Binding of serum 6 to looped/cyclic peptide (PEPSCAN-ELISA) / Binding of serum 37 to looped/cyclic peptide (PEPSCAN-ELISA) / Binding of serum 37 to looped/cyclic peptides of protein X1 of SARS-CoV Urbani / Binding of serum 6 to linear peptides of protein X2 / Binding of serum 37 to linear peptides of protein X2 / Binding of serum 37 to looped/cyclic peptides of protein X2 of SARS-CoV Urbani / Binding of serum 6 to linear peptides of protein M of SARS-CoV Urbani / Binding of serum 37 to linear peptides of protein M of SARS-CoV Urbani / Binding of serum 6 to looped/cyclic peptides of protein M of SARS-CoV Urbani / Binding of serum 37 to looped/cyclic peptides of protein M of SARS-CoV Urbani / Binding of serum 6 to linear peptides of protein X3 of SARS-CoV Urbani / Binding of serum 37 to linear peptides of protein X3 of SARS-CoV Urbani / Binding of serum 37 to looped/cyclic peptides of protein X3 of SARS-CoV Urbani / Binding of serum 6 to linear peptides of protein X4 of SARS-CoV Urbani / Binding of serum 37 to linear peptides of protein X4 of SARS-CoV Urbani / Binding of serum 37 to looped/cyclic peptides of protein X4 of SARS-CoV Urbani / Binding of serum 6 to linear peptides of protein X5 of SARS-CoV Urbani / Binding of serum 37 to linear peptides of protein X5 of SARS-CoV Urbani / Binding of serum 37 to looped/cyclic peptides of protein X5 of SARS-CoV Urbani / Binding of serum 6 to linear peptides of protein N of SARS-CoV Urbani / Binding of serum 37 to linear peptides of protein N of SARS-CoV Urbani / Binding of serum 6 to linear peptide (PEPSCAN-ELISA) / Binding of serum 1a to looped/cyclic peptides of protein N of SARS-CoV Urbani / Binding of serum 1b to looped/cyclic peptides of protein N of SARS-CoV Urbani / Binding of serum 2 to looped/cyclic peptides of protein N of SARS-CoV Urbani / Binding of serum 6 to looped/cyclic peptides of protein N of SARS-CoV Urbani / Binding of serum 37 to looped/cyclic peptides of protein N of SARS-CoV Urbani / Binding of serum 62 to looped/cyclic peptides of protein N of SARS-CoV Urbani / Binding of serum London to looped/cyclic peptides of protein N of SARS-CoV Urbani / Binding of serum SARS-green to looped/cyclic peptides of protein N of SARS-CoV Urbani: unit not given here.

For FLAVFQSATKIIALN, in test [1], the “Binding of Control Serum Blood-Bank to Looped peptides” value came out at 0.6, the “Binding of Control serum Blood-bank to linear peptides” value is 0.6, the “Binding of Control serum LUMC to linear peptides” value is 0.6 and the “Binding of Control serum LUMC to looped peptides” value came out at 0.7. In test [2], the “Binding of a rabbit serum to linear peptides” value was 0.6 and the “Binding of a rabbit serum to looped peptides” value stood at 0.6. Besides, in test [3], the “Binding of serum 1a to linear peptides of protein X1 of SARS-CoV Urbani” value is 0.6, the “Binding of serum 1a to looped/cyclic peptide (PEPSCAN-ELISA)” value is reported as 0.6, the “Binding of serum 1b to linear peptides of protein X1 of SARS-CoV Urbani” value amounted to 0.4 and the “Binding of serum 1b to looped/cyclic peptide (PEPSCAN-ELISA)” value came out at 0.4. In test [3], the “Binding of serum 2 to linear peptides of protein X1 of SARS-CoV Urbani” value worked out at 0.5, the “Binding of serum 2 to looped/cyclic peptide (PEPSCAN-ELISA)” value was determined as 0.5, the “Binding of serum 6 to linear peptides of protein X1 of SARS-CoV Urbani” value worked out at 0.4 and the “Binding of serum 6 to looped/cyclic peptide (PEPSCAN-ELISA)” value is 1.0. Further, in test [3], the “Binding of serum 37 to linear peptides of protein X1 of SARS-CoV Urbani” value was 0.6, the “Binding of serum 37 to looped/cyclic peptide (PEPSCAN-ELISA)” value is recorded as 0.5, the “Binding of serum 62 to linear peptides of protein X1 of SARS-CoV Urbani” value was 0.6 and the “Binding of serum 62 to looped/cyclic peptide (PEPSCAN-ELISA)” value is listed as 0.6. In test [3], the “Binding of serum London to linear peptides of protein X1 of SARS-CoV Urbani” value turned out to be 0.2, the “Binding of serum London to looped/cyclic peptide (PEPSCAN-ELISA)” value turned out to be 1.4, the “Binding of serum SARS-green to linear peptides of protein X1 of SARS-CoV Urbani” value turned out to be 0.3 and the “Binding of serum SARS-green to looped/cyclic peptide (PEPSCAN-ELISA)” value stood at 0.3. In test [3], the “Binding of serum SARS-yellow to linear peptides of protein X1 of SARS-CoV Urbani” value turned out to be 0.4 and the “Binding of serum SARS-yellow to looped/cyclic peptide (PEPSCAN-ELISA)” value was found to be 0.4.
Consider FLAWIMLLQFAYSNR, for which, in test [1], the “Binding of Control Serum Blood-Bank to Looped peptides of the protein M of SARS-CoV Urbani” value is 0.8, the “Binding of Control serum Blood-bank to linear peptides of the protein M of SARS-CoV Urbani” value came out at 0.5, the “Binding of Control serum LUMC to linear peptides of the protein M of SARS-CoV Urbani” value worked out at 0.5 and the “Binding of Control serum LUMC to looped peptides of the protein M of SARS-CoV Urbani” value is 0.7. Further, in test [2], the “Rabbit serum linear peptides” value amounted to 0.3 and the “Rabbit serum looped peptides” value is 0.5. For the same sequence, in test [3], the “Binding of serum 1a to linear peptides of protein M of SARS-CoV Urbani” value amounted to 0.7, the “Binding of serum 1a to looped/cyclic peptides of protein M of SARS-CoV Urbani” value stood at 0.8, the “Binding of serum 1b to linear peptides of protein M of SARS-CoV Urbani” value turned out to be 0.6 and the “Binding of serum 1b to looped/cyclic peptides of protein M of SARS-CoV Urbani” value came to 0.8. Also, in test [3], the “Binding of serum 2 to linear peptides of protein M of SARS-CoV Urbani” value is 0.5, the “Binding of serum 2 to looped/cyclic peptides of protein M of SARS-CoV Urbani” value is recorded as 0.6, the “Binding of serum 6 to linear peptides of protein M of SARS-CoV Urbani” value was 0.4 and the “Binding of serum 6 to looped/cyclic peptides of protein M of SARS-CoV Urbani” value amounted to 0.9. In test [3], the “Binding of serum 37 to linear peptides of protein M of SARS-CoV Urbani” value is reported as 0.4, the “Binding of serum 37 to looped/cyclic peptides of protein M of SARS-CoV Urbani” value is given as 0.7, the “Binding of serum 62 to linear peptides of protein M of SARS-CoV Urbani” value came to 0.4 and the “Binding of serum 62 to looped/cyclic peptides of protein M of SARS-CoV Urbani” value was 0.6. Further, in test [3], the “Binding of serum London to linear peptides of protein M of SARS-CoV Urbani” value turned out to be 0.4, the “Binding of serum London to looped/cyclic peptides of protein M of SARS-CoV Urbani” value is recorded as 0.7, the “Binding of serum SARS-green to linear peptides of protein M of SARS-CoV Urbani” value is reported as 0.5 and the “Binding of serum SARS-green to looped/cyclic peptides of protein M of SARS-CoV Urbani” value came to 0.5. For the same sequence, in test [3], the “Binding of serum SARS-yellow to linear peptides of protein M of SARS-CoV Urbani” value turned out to be 0.2 and the “Binding of serum SARS-yellow to looped/cyclic peptides of protein M of SARS-CoV Urbani” value amounted to 0.7.
For FLFLAWIMLLQFAYS, in test [1], the “Binding of Control Serum Blood-Bank to Looped peptides of the protein M of SARS-CoV Urbani” value is recorded as 0.8, the “Binding of Control serum Blood-bank to linear peptides of the protein M of SARS-CoV Urbani” value is 0.5, the “Binding of Control serum LUMC to linear peptides of the protein M of SARS-CoV Urbani” value is listed as 0.5 and the “Binding of Control serum LUMC to looped peptides of the protein M of SARS-CoV Urbani” value is 0.7. Besides, in test [2], the “Rabbit serum linear peptides” value came out at 0.2 and the “Rabbit serum looped peptides” value is reported as 0.3. Besides, in test [3], the “Binding of serum 1a to linear peptides of protein M of SARS-CoV Urbani” value came out at 0.7, the “Binding of serum 1a to looped/cyclic peptides of protein M of SARS-CoV Urbani” value is 0.8, the “Binding of serum 1b to linear peptides of protein M of SARS-CoV Urbani” value is 0.6 and the “Binding of serum 1b to looped/cyclic peptides of protein M of SARS-CoV Urbani” value turned out to be 0.7. For the same sequence, in test [3], the “Binding of serum 2 to linear peptides of protein M of SARS-CoV Urbani” value was 0.4, the “Binding of serum 2 to looped/cyclic peptides of protein M of SARS-CoV Urbani” value turned out to be 0.6, the “Binding of serum 6 to linear peptides of protein M of SARS-CoV Urbani” value is listed as 0.4 and the “Binding of serum 6 to looped/cyclic peptides of protein M of SARS-CoV Urbani” value turned out to be 0.9. Moreover, in test [3], the “Binding of serum 37 to linear peptides of protein M of SARS-CoV Urbani” value was determined as 0.4, the “Binding of serum 37 to looped/cyclic peptides of protein M of SARS-CoV Urbani” value was found to be 0.7, the “Binding of serum 62 to linear peptides of protein M of SARS-CoV Urbani” value was 0.4 and the “Binding of serum 62 to looped/cyclic peptides of protein M of SARS-CoV Urbani” value came to 0.8. Further, in test [3], the “Binding of serum London to linear peptides of protein M of SARS-CoV Urbani” value worked out at 0.3, the “Binding of serum London to looped/cyclic peptides of protein M of SARS-CoV Urbani” value came to 0.3, the “Binding of serum SARS-green to linear peptides of protein M of SARS-CoV Urbani” value was 0.4 and the “Binding of serum SARS-green to looped/cyclic peptides of protein M of SARS-CoV Urbani” value amounted to 0.3. Moreover, in test [3], the “Binding of serum SARS-yellow to linear peptides of protein M of SARS-CoV Urbani” value is 0.2 and the “Binding of serum SARS-yellow to looped/cyclic peptides of protein M of SARS-CoV Urbani” value was determined as 0.4.
For FLIVAALVFLILCFT, in test [1], the “Binding of Control Serum Blood-Bank to Looped peptides” value is listed as 0.7, the “Binding of Control serum Blood-bank to linear peptides” value is 0.4, the “Binding of Control serum LUMC to linear peptides” value stood at 0.4 and the “Binding of Control serum LUMC to looped peptides” value is 0.6. In test [2], the “Rabbit serum linear peptides” value is on record as 0.4 and the “Rabbit serum looped peptides” value was 0.3. Further, in test [3], the “Binding of serum 1a to linear peptides of protein X4 of SARS-CoV Urbani” value is reported as 0.6, the “Binding of serum 1a to looped/cyclic peptides of protein X4 of SARS-CoV Urbani” value worked out at 0.7, the “Binding of serum 1b to linear peptides of protein X4 of SARS-CoV Urbani” value is 0.5 and the “Binding of serum 1b to looped/cyclic peptides of protein X4 of SARS-CoV Urbani” value is 0.4. In test [3], the “Binding of serum 2 to linear peptides of protein X4 of SARS-CoV Urbani” value came to 0.4, the “Binding of serum 2 to looped/cyclic peptides of protein X4 of SARS-CoV Urbani” value is 0.7, the “Binding of serum 6 to linear peptides of protein X4 of SARS-CoV Urbani” value is on record as 0.5 and the “Binding of serum 6 to looped/cyclic peptides of protein X4 of SARS-CoV Urbani” value came out at 0.4. Further, in test [3], the “Binding of serum 37 to linear peptides of protein X4 of SARS-CoV Urbani” value is listed as 0.7, the “Binding of serum 37 to looped/cyclic peptides of protein X4 of SARS-CoV Urbani” value is on record as 0.7, the “Binding of serum 62 to linear peptides of protein X4 of SARS-CoV Urbani” value turned out to be 0.7 and the “Binding of serum 62 to looped/cyclic peptides of protein X4 of SARS-CoV Urbani” value was determined as 0.6. Also, in test [3], the “Binding of serum London to linear peptides of protein X4 of SARS-CoV Urbani” value is 0.6, the “Binding of serum London to looped/cyclic peptides of protein X4 of SARS-CoV Urbani” value came to 0.3, the “Binding of serum SARS-green to linear peptides of protein X4 of SARS-CoV Urbani” value was found to be 0.5 and the “Binding of serum SARS-green to looped/cyclic peptides of protein X4 of SARS-CoV Urbani” value came to 0.5. In test [3], the “Binding of serum SARS-yellow to linear peptides of protein X4 of SARS-CoV Urbani” value is 0.7 and the “Binding of serum SARS-yellow to looped/cyclic peptides of protein X4 of SARS-CoV Urbani” value is 0.5.

These data come from patent publication US20070128217A1 (priority 2003, published 2007).
